The values that follow come from ChEMBL document CHEMBL1142208, “Protection of mice from lethal Escherichia coli infection by chimeric human bactericidal/permeability-increasing protein and immunoglobulin G1 Fc gene delivery” (2007).

SMILES strings stand for the structures.

The subject of assay [1] is Mus musculus. Kind of assay: Mortality rate of BALB/c mouse infected with Escherichia coli O111:B4 at 25 ug, im within 48 hrs. In kind it is functional.
For assay [2], the system named is Mus musculus. In words: Survival rate of BALB/c mouse infected with Escherichia coli O111:B4 at 25 ug, im within 48 hrs. Type of assay: functional.

As for `CO/N=C(\C(=O)N[C@@H]1C(=O)N2C(C(=O)O)=C(COC(N)=O)CS[C@H]12)c1ccco1` [CEFUROXIME], the Survival in assay [1] worked out at 91.4%; in assay [2] it was 5%.
